Results taken from the NIST ThermoML archive (doi:10.1016/j.fluid.2006.07.015).
Numbers after ± are expanded uncertainties.

Assay: activity coefficient (dimensionless); of the first substance listed, at infinite dilution; xn = mol fraction of the nth substance listed
Settings: 101 kPa, Liquid, Chromatography, x1 = 0

Compound	activity coefficient (373.15 K)	activity coefficient (388.15 K)	activity coefficient (403.15 K)	activity coefficient (418.15 K)	activity coefficient (433.15 K)
CCC#CCC [3-hexyne] + CCCCCCCCCCCCCCCCCCC(CCCCCCCCCCCCCCCCCC)CCCCC(CCCCCCCCCCCCCCCCCC)CCCCCCCCCCCCCCCCCC	0.404 ± 0.034	0.406 ± 0.034	0.406 ± 0.034	0.417 ± 0.034	0.419 ± 0.034
C1CCCCCC1 [cycloheptane] + CCCCCCCCCCCCCCCCCCC(CCCCCCCCCCCCCCCCCC)CCCCC(CCCCCCCCCCCCCCCCCC)CCCCCCCCCCCCCCCCCC	0.252 ± 0.036	0.257 ± 0.036	0.256 ± 0.036	0.253 ± 0.036	0.255 ± 0.036
C1CC[C@@H]2CCC[C@H]2C1 [trans-bicyclo[4.3.0]nonane] + CCCCCCCCCCCCCCCCCCC(CCCCCCCCCCCCCCCCCC)CCCCC(CCCCCCCCCCCCCCCCCC)CCCCCCCCCCCCCCCCCC	0.267 ± 0.036	0.278 ± 0.036	0.276 ± 0.036	0.273 ± 0.036	0.277 ± 0.036
C[C@H]1CC[C@@H](C)CC1 [cis-1,4-dimethylcyclohexane] + CCCCCCCCCCCCCCCCCCC(CCCCCCCCCCCCCCCCCC)CCCCC(CCCCCCCCCCCCCCCCCC)CCCCCCCCCCCCCCCCCC	0.287 ± 0.036	0.294 ± 0.036	0.296 ± 0.036	0.296 ± 0.036	0.3 ± 0.036
CCC(C)CC(C)C (stereo not given) [2,4-dimethylhexane] + CCCCCCCCCCCCCCCCCCC(CCCCCCCCCCCCCCCCCC)CCCCC(CCCCCCCCCCCCCCCCCC)CCCCCCCCCCCCCCCCCC	0.394 ± 0.034	0.396 ± 0.034	0.396 ± 0.034	0.398 ± 0.034	0.405 ± 0.034
CCCCC [pentane] + CCCCCCCCCCCCCCCCCCC(CCCCCCCCCCCCCCCCCC)CCCCC(CCCCCCCCCCCCCCCCCC)CCCCCCCCCCCCCCCCCC	0.336 ± 0.035	0.338 ± 0.035	0.341 ± 0.035	0.345 ± 0.035	0.349 ± 0.035
C=CCCCCC [1-heptene] + CCCCCCCCCCCCCCCCCCC(CCCCCCCCCCCCCCCCCC)CCCCC(CCCCCCCCCCCCCCCCCC)CCCCCCCCCCCCCCCCCC	0.354 ± 0.035	0.355 ± 0.035	0.356 ± 0.035	0.357 ± 0.035	0.359 ± 0.035
CC(C)CC(C)C [2,4-dimethylpentane] + CCCCCCCCCCCCCCCCCCC(CCCCCCCCCCCCCCCCCC)CCCCC(CCCCCCCCCCCCCCCCCC)CCCCCCCCCCCCCCCCCC	0.391 ± 0.034	0.392 ± 0.034	0.394 ± 0.034	0.396 ± 0.034	0.4 ± 0.034
c1ccc2ccccc2c1 [naphthalene] + CCCCCCCCCCCCCCCCCCC(CCCCCCCCCCCCCCCCCC)CCCCC(CCCCCCCCCCCCCCCCCC)CCCCCCCCCCCCCCCCCC	0.384 ± 0.034	0.397 ± 0.034	0.4 ± 0.034	0.392 ± 0.034	0.386 ± 0.034
C=CCCCCCC [oct-1-ene] + CCCCCCCCCCCCCCCCCCC(CCCCCCCCCCCCCCCCCC)CCCCC(CCCCCCCCCCCCCCCCCC)CCCCCCCCCCCCCCCCCC	0.374 ± 0.034	0.374 ± 0.034	0.374 ± 0.034	0.375 ± 0.034	0.377 ± 0.034
CC(C)C(C)(C)C [2,2,3-trimethylbutane] + CCCCCCCCCCCCCCCCCCC(CCCCCCCCCCCCCCCCCC)CCCCC(CCCCCCCCCCCCCCCCCC)CCCCCCCCCCCCCCCCCC	0.34 ± 0.035	0.345 ± 0.035	0.348 ± 0.035	0.349 ± 0.035	0.355 ± 0.035
CCCCCCCCC [nonane] + CCCCCCCCCCCCCCCCCCC(CCCCCCCCCCCCCCCCCC)CCCCC(CCCCCCCCCCCCCCCCCC)CCCCCCCCCCCCCCCCCC	0.399 ± 0.034	0.401 ± 0.034	0.403 ± 0.034	0.404 ± 0.034	0.406 ± 0.034
C1C2CC3CC1CC(C2)C3 [adamantane] + CCCCCCCCCCCCCCCCCCC(CCCCCCCCCCCCCCCCCC)CCCCC(CCCCCCCCCCCCCCCCCC)CCCCCCCCCCCCCCCCCC	0.337 ± 0.035	0.339 ± 0.035	0.337 ± 0.035	0.342 ± 0.035	0.343 ± 0.035
C#CCCCCCC [1-octyne] + CCCCCCCCCCCCCCCCCCC(CCCCCCCCCCCCCCCCCC)CCCCC(CCCCCCCCCCCCCCCCCC)CCCCCCCCCCCCCCCCCC	0.428 ± 0.034	0.424 ± 0.034	0.417 ± 0.034	0.412 ± 0.034	0.411 ± 0.034
CC(C)C(C)C(C)C [2,3,4-trimethylpentane] + CCCCCCCCCCCCCCCCCCC(CCCCCCCCCCCCCCCCCC)CCCCC(CCCCCCCCCCCCCCCCCC)CCCCCCCCCCCCCCCCCC	0.353 ± 0.035	0.356 ± 0.035	0.358 ± 0.035	0.36 ± 0.035	0.362 ± 0.035
CCCc1ccccc1 [propylbenzene] + CCCCCCCCCCCCCCCCCCC(CCCCCCCCCCCCCCCCCC)CCCCC(CCCCCCCCCCCCCCCCCC)CCCCCCCCCCCCCCCCCC	0.336 ± 0.035	0.339 ± 0.035	0.336 ± 0.035	0.331 ± 0.035	0.33 ± 0.035
C=CCCCCCCCCCCC [1-tridecene] + CCCCCCCCCCCCCCCCCCC(CCCCCCCCCCCCCCCCCC)CCCCC(CCCCCCCCCCCCCCCCCC)CCCCCCCCCCCCCCCCCC	0.467 ± 0.033	0.466 ± 0.033	0.466 ± 0.033	0.467 ± 0.033	0.468 ± 0.033
CCC(C)C(C)CC (stereo not given) [3,4-dimethylhexane] + CCCCCCCCCCCCCCCCCCC(CCCCCCCCCCCCCCCCCC)CCCCC(CCCCCCCCCCCCCCCCCC)CCCCCCCCCCCCCCCCCC	0.353 ± 0.035	0.357 ± 0.035	0.36 ± 0.035	0.362 ± 0.035	0.366 ± 0.035
CCCCCCCCCCCCCC [tetradecane] + CCCCCCCCCCCCCCCCCCC(CCCCCCCCCCCCCCCCCC)CCCCC(CCCCCCCCCCCCCCCCCC)CCCCCCCCCCCCCCCCCC	0.492 ± 0.033	0.493 ± 0.033	0.494 ± 0.033	0.495 ± 0.033	0.495 ± 0.033
C1=CCCCC1 [cyclohexene] + CCCCCCCCCCCCCCCCCCC(CCCCCCCCCCCCCCCCCC)CCCCC(CCCCCCCCCCCCCCCCCC)CCCCCCCCCCCCCCCCCC	0.239 ± 0.036	0.244 ± 0.036	0.243 ± 0.036	0.241 ± 0.036	0.243 ± 0.036
C1=CCC=CC1 [1,4-cyclohexadiene] + CCCCCCCCCCCCCCCCCCC(CCCCCCCCCCCCCCCCCC)CCCCC(CCCCCCCCCCCCCCCCCC)CCCCCCCCCCCCCCCCCC	0.242 ± 0.036	0.244 ± 0.036	0.242 ± 0.036	0.238 ± 0.036	0.238 ± 0.036
CC(C)CC(C)(C)C [2,2,4-trimethylpentane] + CCCCCCCCCCCCCCCCCCC(CCCCCCCCCCCCCCCCCC)CCCCC(CCCCCCCCCCCCCCCCCC)CCCCCCCCCCCCCCCCCC	0.397 ± 0.034	0.401 ± 0.034	0.401 ± 0.034	0.405 ± 0.034	0.406 ± 0.034
